Laboratory results as given in patent US8173695B2, “Kappa selective opioid receptor antagonist” (Eli Lilly and Company, priority 2008, dated 2012).
Values joined by “and” are separate entries in the source; they are usually repeats but may differ in a detail not shown here. Identical values can stand only once. Like-named read-outs stand apart in the source and are kept apart here.

Columns and labels:
P rats = assay: P rat progressive ratio responding for ethanol; assay type: in vivo; conditions: 10 mg/kg p.o. 60 min prior to testing, p<0.05 versus vehicle
Experimental: This test assesses the motivation to work for access to ethanol in P rats following ethanol abstinence. This animal model simulates ethanol craving.
Female P rats (Indiana University Medical Center, Indianapolis, Ind., USA) are pair-housed in an environmentally controlled facility and maintained on a 12 h light/dark cycle (lights on at 0600 hours).
Compounds are solubilized in sterile water by the dropwise addition of 85% lactic acid, mixed freshly prior to use, and administered in a volume of 1 mL/kg. Unless otherwise stated, compounds are administered p.o. 60 min prior to the experimental session. Doses are assigned using a counterbalanced, within-subject design (n=8-11 per experiment).
In order to reduce novelty-induced avoidance of ethanol (EtOH), the water bottle on the homecage is replaced with a bottle containing 15% EtOH (v/v; Ancare, Bellmore, N.Y.) for two days prior to operant training. Throughout the rest of the experiment, rats are allowed ad libitum access to water and standard laboratory chow in the homecage.
Daily 60-min sessions are conducted in standard rat operant chambers, housed within sound-attenuating chambers (MED Associates, Inc., St. Albans, Vt., USA). The 0.5 cm diameter stainless steel bars of the floor grid of the operant chambers are positioned approximately 1.5 cm apart. Two retractable operant levers in each operant chamber are located approximately 15 cm above the grid floor and 13 cm apart. A recessed trough is located in the space between the levers, through which a dipper cup (0.1 mL capacity) is raised to deliver response-contingent ethanol (15% EtOH, v/v). Upon a reinforced response, a stimulus light is illuminated during the 4-sec dipper cup access. Operation of the stimuli and behavioral responses are controlled and recorded by personal computer for offline analysis. At the end of each session, all stimuli are turned off and levers are retracted.
Rats are trained to press a lever for EtOH reinforcement. Initially, responses on either lever are considered correct responses and are rewarded with reinforcement. […]

Sprague Dawley rats = assay: Prepulse inhibition, reversal of U69593 induced disruption of PPI; assay type: in vivo, rat
Male NIH-Swiss mice = assay: Mouse forced swim test; assay type: in vivo; conditions: for immobility in mouse forced swim test, Mean: 60 min
From the text: This test evaluates the effect of test compound on mice mobility as a measure of antidepressant effect. The less immobility compared to vehicle, the more pronounced the antidepressant-like effect.
Male, NIH-Swiss mice (25-30 g) (Harlan Sprague-Dawley, Indianapolis, Ind., USA) are housed in a vivarium for at least one week prior to use with water and rodent chow freely available during this acclimation period. Animals are removed from the vivarium to the testing area in their home cages and allowed to adapt to the new environment for at least one hour before testing.
Mice are placed in clear plastic cylinders (diameter: 10 cm; height: 25 cm) filled with 6 cm of water (22-25° C.) for six minutes. The duration of immobility during the last four minutes of the six minutes test period is scored. A mouse is recorded as immobile when floating motionless or making only those movements necessary to keep its head above water.
The test compound is administered p.o. 1 hour prior to testing at 1.0 mg/kg, 3.0 mg/kg and 10.0 mg/kg, n of 8 per group in a vehicle of 5 ml of sterile water and 30 ml of diluted (10×) lactic acid. Imipramine is evaluated as a positive control, 15 mg/kg: p, 30 min. prior to testing n of 4.
A second study is carried out evaluating 1 and 3 mg/kg doses of the compound of Example 1A alone and in combination with 5 mg/kg of imipramine. Imipramine alone is evaluated at 5 and 15 mg/kg doses and a vehicle control is included in the study. For the combination studies, the compound of Example 1A is administered p.o. 30 minutes prior to administration of imipramine i.p. and the test initiated 30 minutes following imipramine administration. An n of 8 per group is evaluated for all groups. For the evaluations of the compound of Example 1A alone, testing is initiated 60 minutes following administration and testing of imipramine only treated animals is initiated 30 minutes following administration.

[1] = Plasma exposure after oral dosing, LC/MS/MS; assay type: in vivo; conditions: male, Sprague Dawley (Harlan), rat plasma, read-out: Plasma Levels
Experimental: Male Harlan Sprague Dawley rats are treated with the compound of Example 1A of the present invention using a 3% lactic acid/water oral formulation at doses of […], 0.3, 1, 3, 10 and 30 mg/kg. […] The increasing levels of kappa receptor occupancy are driven by roughly proportional increases in plasma and brain exposure of the compound of Example 1A of the present invention up to a dose of 30 mg/kg.
Plasma exposure of Example 1A of the present invention in the rat following administration is determined from plasma isolated from trunk blood collected at the time of tissue collection for receptor occupancy. Levels of the compound of Example 1A are detected by LC/MS/MS (API 4000, MDS Sciex) and quantified from a standard curve of Example 1A prepared in vehicle treated rat plasma.

With `Cc1cc(C)cc([C@@H]2CCCN2Cc2ccc(Oc3ccc(C(N)=O)cc3F)cc2)c1` (single isomer, unassigned) [Example 1A] the breakpoint (P rats) was “reduced”, the “number of active lever responses” value (P rats) was “reduced” and the “quantity of ethanol consumed” value (P rats) was “reduced”. For the same compound, the “% Inhibition (PPI), individual rats” value (Sprague Dawley rats; 0.1 mg/kg Example 1A p.o./3.0 mg/kg U-69593 sc) was 29.86% and 55.18% and 22.97% and 54.62% and 31.90% and 9.79% and 25.88% and 31.40%, the “% Inhibition (PPI), individual rats” value (Sprague Dawley rats; 0.3 mg/kg Example 1A p.o./3.0 mg/kg U-69593 sc) was 33.74% and −1.75% and 52.00% and 47.01% and 0.52% and 42.14% and 66.71% and 71.91% and the “% Inhibition (PPI), individual rats” value (Sprague Dawley rats; 1.0 mg/kg Example 1A p.o./3.0 mg/kg U-69593 sc) was 30.08% and 52.23% and 24.91% and 70.96% and 55.10% and 71.68% and 61.05% and 59.31%. For the same compound, the “reversal of sensory motor gating deficits induced by the Kappa agonist U-69593” value (Sprague Dawley rats; rats, Table 6) was “can reverse”, the “immobility in mouse forced swim test, Mean” value (Male NIH-Swiss mice; Example 1A 1 mg/kg p.o.) was 151.53 s and the “immobility in mouse forced swim test, Mean” value (Male NIH-Swiss mice; Example 1A 3 mg/kg p.o.) was 172.02 s. The “antidepressant-like activity (immobility), in words” value (Male NIH-Swiss mice; first study, 10.0 mg/kg p.o. 1 hour prior to testing, p<0.05 versus vehicle, Dunnett's test) was “demonstrates antidepressant-like activity”, the concentration at 5.5 h ([1]; 0.1 mg/kg, oral dose .1) was 1.17 ng/g and the concentration at 5.5 h ([1]; 0.3 mg/kg, oral dose .3) was 2.27 ng/g. For the same compound, the concentration at 5.5 h ([1]; 1 mg/kg, oral dose 1) was 4.63 ng/g, the concentration at 5.5 h ([1]; 3 mg/kg, oral dose 3) was 15.4 ng/g and the concentration at 5.5 h ([1]; 10 mg/kg, oral dose 10) was 65.2 ng/g. The concentration at 5.5 h ([1]; 30 mg/kg, oral dose 30) was 106 ng/g.
